In general, solubility (kinetic) refers to solubility judged after dilution from a stock solution rather than from solid.

Values after ≈ are worked out from the molar mass of the structure shown.

The conditions of the data set: buffer; pH 7.4; 200.0 µM.
`COc1cccc(NC(=O)CN2C(=O)COc3ccc(C)cc32)c1` had a solubility (kinetic) of 1.9 µg/mL (≈ 5.82 µM).
Consider `CCCCN(C(=O)C1CC1)C1CCS(=O)(=O)C1` (centres undefined), for which the kinetic solubility is > 38.9 µg/mL.
For `O=C(O)CC1(CC(=O)Nc2ccc(Cl)cc2C(=O)c2ccccc2)CCCC1`, the solubility (kinetic) was > 60 µg/mL.
For the compound `N=C1c2ccccc2CN1c1cccc([N+](=O)[O-])c1`, the kinetic solubility was > 38 µg/mL.
Regarding `CCC(=O)N1CCc2nc(-c3ccccc3)sc2C1`, the kinetic solubility was > 40.9 µg/mL.
Under `Cc1cc(NC(=O)CSc2ccc(F)cc2)no1` stands > 39.9 µg/mL; under `Cc1nc(N)[nH]c(=O)c1Oc1cccc(C(F)(F)F)c1`, 35.6 µg/mL (≈ 125 µM).
Take `CCOC(=O)CNC(=O)CSc1nc(-c2ccc(C)cc2)ns1`: the kinetic solubility was determined as 11.1 µg/mL (≈ 31.6 µM).
Under `O=C(Nc1ccc2cccnc2c1)c1ccc(Br)cc1` stands 0.4 µg/mL (≈ 1.22 µM).
The compound `CN(C)c1ccc(NC(=O)c2cnsn2)cc1` displayed a kinetic solubility of 30.2 µg/mL (≈ 122 µM).
The value for `COCCCNC(=O)c1cn(C)c(=O)c2c1c1ccccc1n2C` was 19.8 µg/mL (≈ 60.5 µM); that for `COc1ccc(CN2CCNCC2)cc1.Cl` was > 36.4 µg/mL; that for `O=C(NC1CCN(C(=O)NCc2ccccc2)CC1)c1cccc(F)c1` was 3.4 µg/mL (≈ 9.57 µM).
Under `CC(=O)Nc1nc(C)cs1` stands > 23.4 µg/mL.
As to `C/C(=N\OCC(=O)Nn1c(C)nc2ccccc2c1=O)c1cccs1`, the solubility (kinetic) is > 53.5 µg/mL.
The value for `Cc1ccccc1-c1nnc(SC(C)C(=O)NC2CCCC2)o1` (centres undefined) was > 49.7 µg/mL; that for `CC(=O)Nc1ccc(C(=O)COC(=O)c2ccco2)c(F)c1` was > 45.8 µg/mL; that for `Cc1ccc(NC(=O)/C(Cl)=C\c2ccccc2)cc1` was 1.4 µg/mL (≈ 5.15 µM).
With `Cc1n(Cc2ccccc2)c2cc([N+](=O)[O-])ccc2[n+]1Cc1ccccc1.[Cl-]`, the solubility (kinetic) was > 59.1 µg/mL.
With `COc1cccc(C(=O)NOCc2ccccc2)c1OC`, the kinetic solubility is > 43.1 µg/mL.
In turn, `CC(C)(C)NCc1ccc(OCc2cccs2)cc1.Cl` gave a solubility (kinetic) of 36.8 µg/mL.
For the compound `Brc1ccc(-c2noc(-c3ccccn3)n2)o1`, the solubility (kinetic) amounted to 10.8 µg/mL (≈ 37 µM).
With `CCCN(CC1CC1)CC(O)c1ccccc1.O=C(O)C(=O)O` (centres undefined), the solubility (kinetic) was > 48.5 µg/mL.
`O=C(CNC(=O)C1COc2ccccc2O1)Nc1ccc(F)c(F)c1` (centres undefined) displayed a kinetic solubility of 18.3 µg/mL (≈ 52.5 µM).
Compound `CCC1(C)Cc2ccccc2-c2[nH]c(=S)[nH]c(=O)c21` (centres undefined) displayed a solubility (kinetic) of 22.1 µg/mL (≈ 81.1 µM).
As to `CC1=CCC2C(=O)N(c3ccc(N4CCOCC4)cc3)C(=O)C2C1` (centres undefined), the kinetic solubility came out at 45.3 µg/mL (≈ 139 µM).
Consider `CCC(C)Nc1nc(N)c([N+](=O)[O-])c(Nc2ccccc2OC)n1` (centres undefined), for which the solubility (kinetic) was determined as 2.6 µg/mL (≈ 7.82 µM).
Under `COc1cccc(S(=O)(=O)Nc2ccc3c(c2)OCCO3)c1` stands > 48.2 µg/mL; under `C=CCOc1ccc(CN(C)C(=O)C2CCCO2)cc1` (centres undefined), > 41.3 µg/mL.
With `O=C(Nc1cccc([N+](=O)[O-])c1)c1ccc(N2CCCC2=O)cc1`, the kinetic solubility was found to be 1.5 µg/mL (≈ 4.61 µM).
The value for `CCNc1nc(NCC)nc(OCC(=O)O)n1` was > 36.2 µg/mL; that for `Cc1cc(NC(=O)COc2ccccc2C#N)no1` was 11.2 µg/mL (≈ 43.5 µM).
Compound `COc1ccc(C(=O)NC2CCN(C(=O)NCc3ccccc3)CC2)cc1` gave a kinetic solubility of 5.4 µg/mL (≈ 14.7 µM).
In turn, `CC(NC(=O)COC(=O)c1c[nH]c2ccccc12)c1ccccc1` (centres undefined) showed a kinetic solubility of 46.2 µg/mL (≈ 143 µM).
Take `Cc1ccc(C(=O)N2CCN(c3cccc(C)c3C)CC2)o1`: the solubility (kinetic) was 31.8 µg/mL (≈ 107 µM).
The compound `CCOC(=O)C(=CNc1ccc(Oc2cncc(Cl)c2)nc1)C(=O)OCC` gave a kinetic solubility of 5 µg/mL (≈ 12.8 µM).
Turning to `O=C(CNC(=O)c1ccccc1)NCC(=O)OCC(=O)c1ccccc1Cl`, the kinetic solubility was 50.1 µg/mL (≈ 129 µM).
In the case of `COc1cc(NC(=O)c2ccccc2)c(OC)cc1NC(=O)Cc1ccc(C)cc1`, the solubility (kinetic) was < 0.4 µg/mL.
In the case of `O=C(Nc1ccccc1)c1cccc(=O)o1`, the kinetic solubility is > 32.3 µg/mL.
On to `O=C(O)C(Cc1c[nH]c2ccccc12)N1C(=O)c2ccccc2C1=O` (centres undefined), for which the solubility (kinetic) was 41.4 µg/mL (≈ 124 µM).
`c1ccc(Cn2c(NCc3ccncc3)nc3ccccc32)cc1`: the solubility (kinetic) was > 47.2 µg/mL.
Take `COCc1cc(C)nc(SCc2ccccc2)c1C#N`: the kinetic solubility was found to be 3.4 µg/mL (≈ 12 µM).
The compound `O=C(Nc1c(S(=O)(=O)c2ccccc2)csc1Br)c1ccccc1Cl` displayed a kinetic solubility of 42.9 µg/mL (≈ 93.9 µM). Compared with the last compound, the solubility kinetic is about 13-fold higher.
For the compound `NC(=O)C1CCCc2c1n(Cc1ccccc1)c1ccccc21` (centres undefined), the kinetic solubility is 22.3 µg/mL (≈ 73.3 µM).
As to `NC(=O)c1c(NC(=O)c2cccnc2)sc2c1CCCCC2`, the kinetic solubility amounted to 6 µg/mL (≈ 19 µM).
On to `CCSc1nnc(SCC(=O)NC2CCCCC2)s1`, for which the solubility (kinetic) was > 47.6 µg/mL.
On to `CCn1c(SCc2ccc(F)cc2)nc2ccccc2c1=O`, for which the solubility (kinetic) worked out at 0.5 µg/mL (≈ 1.59 µM).
`Clc1ccc(OCC#CCN2CCCC2)cc1.O=C(O)C(=O)O`: the kinetic solubility stood at 45.1 µg/mL.
`O=C(CCc1c[nH]c2ccccc12)N1CCCC1`: the kinetic solubility was > 36.3 µg/mL.
As to `NC(=NCCc1ccccc1)NS(=O)(=O)c1ccccc1F`, the kinetic solubility is > 48.2 µg/mL.
In turn, `COc1ccc(C(=O)C2CCCN(C(=O)c3cnsn3)C2)c(C)c1` (centres undefined) yielded a solubility (kinetic) of 40 µg/mL (≈ 116 µM).
In the case of `CCc1ccc(N(CC)C(=O)c2cn(C)c(=O)c3ccccc23)cc1`, the solubility (kinetic) was > 50.2 µg/mL.
The value for `Brc1ccc(C2NCCS2)cc1` (centres undefined) was 29.3 µg/mL (≈ 120 µM); that for `Cc1ccc(C(=O)NCC(=O)OC2CCCCC2=O)cc1C` (centres undefined) was > 45.5 µg/mL.
As for `Cc1ccc(S(=O)(=O)NCc2ccco2)cc1C(N)=O`, the solubility (kinetic) is > 44.1 µg/mL.
The value for `CC(=O)Oc1ccc(C(=O)N2c3ccccc3NC(=O)C2C)cc1` (centres undefined) was > 48.7 µg/mL.
As to `O=C(Nc1ccccc1C(=O)Nc1ccccn1)c1ccc([N+](=O)[O-])cc1`, the kinetic solubility is 0.6 µg/mL (≈ 1.66 µM).
On to `Cc1csc2nc(O)c(C(=O)NCCCc3ccccc3)c(=O)n12`, for which the kinetic solubility amounted to 4.2 µg/mL (≈ 12.2 µM). This solubility kinetic lies about 7-fold higher than the previous one.
The value for `CC(OC(=O)CCOc1ccccc1)C(=O)Nc1ccc(Cl)cn1` (centres undefined) was 34.3 µg/mL (≈ 98.3 µM); that for `CCc1c(O)nc(SCC(=O)c2ccccc2)n(-c2ccccc2)c1=O` was 44.6 µg/mL (≈ 122 µM).
The value for `Cc1cccc(NC(=O)c2c(O)c3ccccc3n(C)c2=O)c1` was < 0.3 µg/mL; that for `Cc1ccc2cccc(SCC(=O)Nc3ccc(F)cc3)c2n1` was < 0.3 µg/mL; that for `CCCCCCCn1ccc(O)c(CC(=O)OC)c1=O` was > 42.2 µg/mL.
As to `Cc1ccc2cc(NC(=O)c3ccccc3)ccc2n1`, the kinetic solubility is > 39.3 µg/mL.
Compound `COc1ccc(Br)cc1CN1CCN(c2ncccn2)CC1` returned a kinetic solubility of 38.8 µg/mL (≈ 107 µM).
In turn, `COc1ccc(CC(=O)N2CCN(c3ccccc3OC)CC2)cc1OC` returned a kinetic solubility of 51.5 µg/mL (≈ 139 µM).
Take `COc1ccc(CN(C)C(=O)Cc2c[nH]c3ccccc23)cc1`: the solubility (kinetic) came out at 30.4 µg/mL (≈ 98.6 µM).
Under `Cc1ccc(S(=O)(=O)NCc2cccnc2)c(C)c1` stands > 41.5 µg/mL; under `O=C(CNC(=O)c1ccccc1F)OC1CCOC1=O` (centres undefined), > 42.2 µg/mL; under `FC(F)(F)c1ccccc1CN1CCC(Cc2ccccc2)CC1`, < 0.7 µg/mL.
Consider `O=C(CSc1cccc[n+]1[O-])Nc1ccccc1C(F)(F)F`, for which the solubility (kinetic) was > 49.2 µg/mL.
`CN(C)S(=O)(=O)c1ccc(C(=O)OCCc2ccccc2)cc1` gave a solubility (kinetic) of 0.9 µg/mL (≈ 2.7 µM).
The compound `O=C(c1ccc(F)cc1F)C1CCN(c2ccc([N+](=O)[O-])cn2)CC1` displayed a solubility (kinetic) of 1.4 µg/mL (≈ 4.03 µM).
`CCOc1ccc(C)cc1S(=O)(=O)n1cnc2ccccc21` came in with a kinetic solubility of 1 µg/mL (≈ 3.16 µM).
With `O=S(=O)(Nc1ccccc1N1CCOCC1)c1cccs1`, the kinetic solubility was determined as 4.2 µg/mL (≈ 12.9 µM).
Under `CC(c1ccccc1)C1CC(=O)N(c2cc(Cl)ccn2)C1=O` (centres undefined) stands > 47.2 µg/mL; under `CCOc1ccc(NC(=O)CN2C(=O)COc3ccccc32)cc1`, 5.1 µg/mL (≈ 15.6 µM); under `COc1ccc(CCN(C)CCCC(C#N)(c2cc(OC)c(OC)c(OC)c2)C(C)C)cc1OC.Cl` (centres undefined), > 78.2 µg/mL.
Turning to `CC(C)N1CC(C(=O)Nc2cc(Cl)cc(Cl)c2)CC1=O` (centres undefined), the solubility (kinetic) was > 47.3 µg/mL.
On to `C=CCNC(=O)COC(=O)COc1ccc(Cl)cc1`, for which the kinetic solubility was > 42.6 µg/mL.
Under `O=C(O)c1cnc2[nH]c3ccccc3n2c1=O` stands > 34.4 µg/mL; under `O=S1(=O)N=C(c2ccccc2)c2ccccc21`, 34.7 µg/mL (≈ 143 µM).
The value for `O=C(NC1CCCCC1)C1CCN(c2ncccn2)CC1` was > 43.3 µg/mL; that for `O=C(CCSCc1ccccc1)Nc1ccc2c(c1)OCCO2` was 33.8 µg/mL (≈ 103 µM); that for `Cc1c(C)c(C)c(CO/N=C/c2cccs2)c(C)c1C` was 1.3 µg/mL (≈ 4.52 µM).
Regarding `FC(F)(F)c1cnc2c(c1)[nH]c(=S)n2-c1ccc(Cl)cc1`, the kinetic solubility worked out at 3 µg/mL (≈ 9.1 µM).
As to `C[C@H](NC(=O)c1ccc(C(C)(C)C)cc1)C(=O)N1CCN(C/C=C/c2ccccc2)CC1`, the solubility (kinetic) stood at 21.6 µg/mL (≈ 49.8 µM).
In turn, `CC(=O)c1c(C)[nH]c(C(=O)COC(=O)c2cccs2)c1C` showed a kinetic solubility of 6.9 µg/mL (≈ 22.6 µM).
With `CC(OC(=O)COc1ccc(C#N)cc1)C(=O)c1ccccc1` (centres undefined), the solubility (kinetic) is > 46.4 µg/mL.
On to `CCCc1cc(=S)n2c([nH]c3ccccc32)c1C#N`, for which the kinetic solubility was 16.4 µg/mL (≈ 61.3 µM).
Under `Cc1nc(-c2cccc(S(=O)(=O)N3CCCCC3)c2)cs1` stands 24.3 µg/mL (≈ 75.4 µM).
On to `CCOc1ncccc1C(=O)Nc1ccc2c(c1)OCCCO2`, for which the kinetic solubility was > 47.2 µg/mL.
The value for `CCC(=O)Nc1ccc(-c2ccc(NC(=O)CC)c(OC)c2)cc1OC` was 7.1 µg/mL (≈ 19.9 µM); that for `CCC(=O)Nc1ccc2oc(-c3cccnc3)nc2c1` was 38.4 µg/mL (≈ 144 µM).
With `CCC(C)NC(=O)C1CCC(=O)N1CCc1ccccc1` (centres undefined), the solubility (kinetic) was > 43.3 µg/mL.
`COc1ccc(C2SCC(=O)N2c2ccc(C)cc2)cc1` (centres undefined) gave a solubility (kinetic) of 37.5 µg/mL (≈ 125 µM).
For the compound `Cc1ccc(C)c(CN2C(=O)COc3ccccc32)c1`, the kinetic solubility came out at 2.8 µg/mL (≈ 10.5 µM).
Consider `CC(=O)C(Cc1ccccc1)NC(=O)COc1ccc2c(c1)OCO2` (centres undefined), for which the solubility (kinetic) was > 51.2 µg/mL.
In the case of `COc1ccccc1CNC(=O)Cc1ccc(OC)c(OC)c1`, the solubility (kinetic) was > 47.3 µg/mL.
For `COCCCNC(=O)c1ccc(C2SCC(=O)N2Cc2ccco2)cc1` (centres undefined), the solubility (kinetic) is 52.1 µg/mL (≈ 139 µM).
In turn, `O=c1c2ccc(Cl)cc2[nH]c(=S)n1-c1cccnc1` had a solubility (kinetic) of 10.8 µg/mL (≈ 37.3 µM).
`Cc1ccsc1CN(C)C(=O)c1ccc(Oc2ccccc2)cc1` yielded a kinetic solubility of 3.3 µg/mL (≈ 9.78 µM).
For `Cc1ccc(C)c(C(=O)c2ccccc2NC(=O)c2ccccn2)c1`, the solubility (kinetic) was < 0.4 µg/mL.
As to `CCC(=O)NC(=S)Nc1ccc(S(=O)(=O)NC2CCCCC2)cc1`, the kinetic solubility turned out to be 0.4 µg/mL (≈ 1.08 µM).
